Measurements: patent publication US9969747B2 (Constellation Pharmaceuticals, Inc., priority 2014, dated 2018)
Values joined by “and” are separate entries in the source; they are usually repeats but may differ in a detail not shown here. Equal values may be shown once. Read-outs that look alike come from different tables or passages of the source. Each block holds one molecule with its values, some of them ahead of it.

Assays:
[1] = Oral pharmacokinetics in male Sprague Dawley rats, suspension in 0.5% Methylcellulose; format: in vivo; conditions: for Plasma concentration, PO1: group value
[2] = Solubility and form stability in deionized water; format: physicochemical
[3] = Oral pharmacokinetics in male beagle dogs, crossover, suspension in 0.5% MC; format: in vivo; conditions: for Inter-individual variability: 2 mg/Kg oral, crossover
Method: The objective was to compare the pharmacokinetic profiles of both forms in dogs using a crossover study design in which the same dogs were dosed sequentially with amorphous and monohydrate crystalline Form A with a washout period in between.

[4] = Gravimetric moisture sorption; format: physicochemical; conditions: over a relative humidity range of 5 to 95%
From the text: This level of stability is rare for many pharmaceutical compounds, and particularly for hydrated forms since most are typically stable only at lower threshold values. Typically, one would expect to see stability of a monohydrate stoichiometry over a more limited range, e.g., between 30 to 70%. At relative humidity levels below 30% a compound would still retain water, but the stoichiometric ratio would be less than that of a true monohydrate. Likewise, at high relative humidity, the stoichiometric ratio of water to compound would exceed that of a monohydrate.

[5] = 60 mg/Kg single oral dose, 1 h, 60 mg/kg
[6] = 60 mg/Kg single oral dose, 1 h, 60 mg/kg, in ng/mL
[7] = 60 mg/Kg single oral dose, 2 h, 60 mg/kg
[8] = 60 mg/Kg single oral dose, 2 h, 60 mg/kg, in ng/mL
[9] = 60 mg/Kg single oral dose, 4 h, 60 mg/kg
[10] = 60 mg/Kg single oral dose, 8 h, 60 mg/kg
[11] = 60 mg/Kg single oral dose, 24 h, 60 mg/kg
[12] = male beagle dog, 2 mg/Kg single oral dose, 0.25 h, 2 mg/kg
[13] = male beagle dog, 2 mg/Kg single oral dose, 0.5 h, 2 mg/kg
[14] = male beagle dog, 2 mg/Kg single oral dose, 1 h, 2 mg/kg
[15] = male beagle dog, 2 mg/Kg single oral dose, 2 h, 2 mg/kg
[16] = male beagle dog, 2 mg/Kg single oral dose, 4 h, 2 mg/kg
[17] = male beagle dog, 2 mg/Kg single oral dose, 6 h, 2 mg/kg
[18] = male beagle dog, 2 mg/Kg single oral dose, 8 h, 2 mg/kg
[19] = male beagle dog, 2 mg/Kg single oral dose, 12 h, 2 mg/kg
[20] = male beagle dog, 2 mg/Kg single oral dose, 24 h, 2 mg/kg
[21] = male beagle dog, 2 mg/Kg single oral dose, 2 mg/kg
[22] = 60 mg/Kg single oral dose, 60 mg/kg

Plasma concentration, individual rats [1, 5]: 8650 ng/mL
Plasma concentration, Mean [1, 6]: 11700
Plasma concentration, individual rats [1, 6]: 12700 and 13800
Plasma concentration, individual rats [1, 7]: 8830 ng/mL
Plasma concentration, Mean [1, 8]: 11900
Plasma concentration, individual rats [1, 8]: 14900 and 12100
Plasma concentration, Mean [1, 9]: 9860 ng/mL
Plasma concentration, individual rats [1, 9]: 8410 ng/mL and 9370 ng/mL
Plasma concentration, individual rats ([1]; 60 mg/Kg single oral dose, 4 h, 60 mg/kg, in ng/mL): 11800
Plasma concentration, Mean [1, 10]: 6440 ng/mL
Plasma concentration, individual rats [1, 10]: 6550 ng/mL and 6450 ng/mL and 6310 ng/mL
Plasma concentration, Mean ([1]; 60 mg/Kg single oral dose, 24 h): BQL
Plasma concentration, individual rats [1, 11]: BQL
Cmax ([1]; male, Sprague Dawley, rat, plasma, po, 60 mg/kg, 60 mg/Kg single oral dose, read-out: Cmax): 11900 ng/mL
Tmax ([1]; rat, plasma, 60 mg/Kg single oral dose, read-out: Tmax): 2 h
Inter-individual variability ([3]; male beagle dog): low inter-individual variability
Plasma concentration, Mean [3, 12]: 188 ng/mL
Plasma concentration, Mean [3, 13]: 471 ng/mL
Plasma concentration, Mean [3, 14]: 658 ng/mL
Plasma concentration, Mean [3, 15]: 577 ng/mL
Plasma concentration, Mean [3, 16]: 528 ng/mL
Plasma concentration, Mean [3, 17]: 289 ng/mL
Plasma concentration, Mean [3, 18]: 232 ng/mL
Plasma concentration, Mean [3, 19]: 153 ng/mL
Plasma concentration, Mean [3, 20]: 64 ng/mL
MRT0-last, individual dogs [3, 21]: 7.73 h (2×) and 6.48 h and 7.69 h
Tmax, individual dogs [3, 21]: 1.00 h (5×) and 4.00 h
Tmax ([3]; male, beagle, dog, plasma, po, 2 mg/kg, 2 mg/Kg single oral dose): 1.5 h
AUC(0-inf) ([3]; male, beagle, dog, plasma, po, 2 mg/kg, 2 mg/Kg single oral dose, read-out: AUC0-inf, Mean): 6220 ng·h/mL
AUC(0-inf) ([3]; male, beagle, dog, plasma, po, 2 mg/kg, 2 mg/Kg single oral dose, read-out: AUC0-inf, individual dogs): 6110 ng·h/mL
AUC(0-t) ([3]; male, beagle, dog, plasma, po, 2 mg/kg, 2 mg/Kg single oral dose, read-out: AUC0-last, Mean): 5390 ng·h/mL
AUC(0-t) ([3]; male, beagle, dog, plasma, po, 2 mg/kg, 2 mg/Kg single oral dose, read-out: AUC0-last, individual dogs): 5370 ng·h/mL
Cmax ([3]; male, beagle, dog, plasma, po, 2 mg/kg, 2 mg/Kg single oral dose, read-out: Cmax, Mean): 670 ng/mL
Cmax ([3]; male, beagle, dog, plasma, po, 2 mg/kg, 2 mg/Kg single oral dose, read-out: Cmax, individual dogs): 609 ng/mL
MRT inf ([3]; male, beagle, dog, plasma, po, 2 mg/kg, 2 mg/Kg single oral dose, read-out: MRT0-inf, Mean): 11.2 h
MRT inf ([3]; male, beagle, dog, plasma, po, 2 mg/kg, 2 mg/Kg single oral dose, read-out: MRT0-inf, individual dogs): 11 h
MRT last ([3]; male, beagle, dog, plasma, po, 2 mg/kg, 2 mg/Kg single oral dose, read-out: MRT0-last, Mean): 7.45 h
MRT last ([3]; male, beagle, dog, plasma, po, 2 mg/kg, 2 mg/Kg single oral dose, read-out: MRT0-last, individual dogs): 7.59 h
half-life ([3]; male, beagle, dog, plasma, po, 2 mg/kg, 2 mg/Kg single oral dose, read-out: T1/2, Mean (converted)): 8.59 h
half-life ([3]; male, beagle, dog, plasma, po, 2 mg/kg, 2 mg/Kg single oral dose, read-out: T1/2, individual dogs (converted)): 8.31 h
SMILES: Cc1noc2c1-c1ccccc1C(c1ccc(Cl)cc1)=N[C@H]2CC(N)=O [amorphous form, 2-((4S)-6-(4-chlorophenyl)-1-methyl-4H-benzo[c]isoxazolo[4,5-e]azepin-4-yl)acetamide]
Form change upon slurry in deionized water ([2]; slurry in deionized water for 24 hr at ambient temperature): conversion to monohydrate Form A was observed
AUC0-inf, individual dogs [3, 21]: 5120 ng·h/mL and 7510 ng·h/mL and 6550 ng·h/mL and 4950 ng·h/mL and 7070 ng·h/mL
AUC0-last, individual dogs [3, 21]: 4560 ng·h/mL and 6220 ng·h/mL and 5540 ng·h/mL and 4610 ng·h/mL and 6060 ng·h/mL
Cmax, individual dogs [3, 21]: 646 ng/mL and 681 ng/mL and 672 ng/mL and 705 ng/mL and 706 ng/mL
T1/2, individual dogs [3, 21]: 7.86 h and 10.17 h and 9.21 h and 6.82 h and 9.17 h

Plasma concentration, individual rats ([1]; 10 mg/Kg single oral dose, 299 s, 10 mg/kg): 51.3 ng/mL and 182 ng/mL and 89.2 ng/mL and 191 ng/mL and 166 ng/mL and 31.5 ng/mL
Plasma concentration, individual rats ([1]; 10 mg/Kg single oral dose, 1.00 h, 10 mg/kg): 1940 ng/mL and 1620 ng/mL and 1510 ng/mL and 2300 ng/mL and 1790 ng/mL and 1600 ng/mL
Plasma concentration, PO1 ([1]; 10 mg/Kg single oral dose, 1.00 h): 1790 ng/mL
Plasma concentration, individual rats ([1]; 10 mg/Kg single oral dose, 2.00 h, 10 mg/kg): 1400 ng/mL and 1320 ng/mL and 1420 ng/mL and 1650 ng/mL and 950 ng/mL and 1000 ng/mL
Plasma concentration, PO1 ([1]; 10 mg/Kg single oral dose, 2.00 h): 1290 ng/mL
Plasma concentration, individual rats ([1]; 10 mg/Kg single oral dose, 4.00 h, 10 mg/kg): 611 ng/mL and 349 ng/mL and 569 ng/mL and 544 ng/mL and 166 ng/mL and 255 ng/mL
Plasma concentration, PO1 ([1]; 10 mg/Kg single oral dose, 4.00 h): 416 ng/mL
Plasma concentration, individual rats ([1]; 10 mg/Kg single oral dose, 8.00 h, 10 mg/kg): 56.3 ng/mL and 18.1 ng/mL and 32.4 ng/mL and 13.6 ng/mL and 2.93 ng/mL and 18.2 ng/mL
Plasma concentration, PO1 ([1]; 10 mg/Kg single oral dose, 8.00 h): 23.6 ng/mL
Tmax ([1]; 60 mg/Kg single oral dose): 2.0 h
AUC0-last [1, 22]: 52800 ng·h/mL
Cmax [1, 22]: 7197 ng/mL
Plasma concentration, Mean ([1]; 60 mg/Kg single oral dose, 299 s): 304 ng/mL
Plasma concentration, individual rats ([1]; 60 mg/Kg single oral dose, 299 s, 60 mg/kg): 183 ng/mL and 407 ng/mL and 512 ng/mL and 158 ng/mL and 391 ng/mL and 172 ng/mL
Plasma concentration, Mean ([1]; 60 mg/Kg single oral dose, 0.250 h): 2150 ng/mL
Plasma concentration, individual rats ([1]; 60 mg/Kg single oral dose, 0.250 h, 60 mg/kg): 1830 ng/mL and 2770 ng/mL and 2670 ng/mL and 2150 ng/mL and 2050 ng/mL and 1420 ng/mL
Plasma concentration, Mean ([1]; 60 mg/Kg single oral dose, 0.500 h): 4060 ng/mL
Plasma concentration, individual rats ([1]; 60 mg/Kg single oral dose, 0.500 h, 60 mg/kg): 3610 ng/mL and 5250 ng/mL and 3790 ng/mL and 4120 ng/mL and 4050 ng/mL and 3550 ng/mL
Plasma concentration, Mean [1, 5]: 5530 ng/mL
Plasma concentration, individual rats [1, 5]: 5290 ng/mL and 6110 ng/mL and 6840 ng/mL and 5440 ng/mL and 4740 ng/mL and 4770 ng/mL
Plasma concentration, Mean [1, 7]: 7200 ng/mL
Plasma concentration, individual rats [1, 7]: 8220 ng/mL and 7490 ng/mL and 6700 ng/mL and 8330 ng/mL and 6850 ng/mL and 5590 ng/mL
Plasma concentration, Mean [1, 9]: 6070 ng/mL
Plasma concentration, individual rats [1, 9]: 7740 ng/mL and 4850 ng/mL and 5160 ng/mL and 8350 ng/mL and 5690 ng/mL and 4650 ng/mL
Plasma concentration, Mean [1, 10]: 1760 ng/mL
Plasma concentration, individual rats [1, 10]: 3050 ng/mL and 805 ng/mL and 1220 ng/mL and 1960 ng/mL and 2320 ng/mL and 1200 ng/mL
Plasma concentration, individual rats [1, 11]: BQL (5×) and 1.04
AUC(0-t) ([1]; male, Sprague Dawley, rat, plasma, po, 10 mg/kg, 10 mg/Kg single oral dose): 5500 ng·h/mL
Cmax ([1]; male, Sprague Dawley, rat, plasma, po, 10 mg/kg, 10 mg/Kg single oral dose, read-out: Cmax): 1790 ng/mL
Inter-individual differences ([1]; oral, 10 and 60 mg/Kg): Low inter-individual differences
Tmax ([1]; rat, plasma, 10 mg/Kg single oral dose, read-out: Tmax): 1 h
Stability of the form in deionized water ([2]; deionized water): stable
solubility ([2]; deionized water, water, thermodynamic from solid): 4.5 µg/mL
Water content (monohydrate stoichiometry) in gravimetric moisture sorption [4]: approximately 5%
Inter-individual variability ([3]; male beagle dog): low inter-individual variability
Tmax, Mean ([3]; male beagle dog, 2 mg/Kg single oral dose): 1.50 h
Plasma concentration, Mean [3, 12]: 100 ng/mL
Plasma concentration, Mean [3, 13]: 330 ng/mL
Plasma concentration, Mean [3, 14]: 522 ng/mL
Plasma concentration, Mean [3, 15]: 512 ng/mL
Plasma concentration, Mean [3, 16]: 435 ng/mL
Plasma concentration, Mean [3, 17]: 278 ng/mL
Plasma concentration, Mean [3, 18]: 214 ng/mL
Plasma concentration, Mean [3, 19]: 151 ng/mL
Plasma concentration, Mean [3, 20]: 67.1 ng/mL
AUC0-inf, Mean [3, 21]: 5853 ng·h/mL
AUC0-last, Mean [3, 21]: 4892 ng·h/mL
Cmax, Mean [3, 21]: 536 ng/mL
MRT0-last, Mean [3, 21]: 7.95 h
T1/2, Mean [3, 21]: 9.70 h
Tmax, individual dogs [3, 21]: 2.00 h
SMILES: Cc1noc2c1-c1ccccc1C(c1ccc(Cl)cc1)=N[C@H]2CC(N)=O [monohydrate Form A, 2-((4S)-6-(4-chlorophenyl)-1-methyl-4H-benzo[c]isoxazolo[4,5-e]azepin-4-yl)acetamide]
Dose proportionality of Cmax and AUC ([1]; oral, dose increases from 10 to 60 mg/Kg): increase slightly more than proportionally with the dose
AUC0-inf, individual dogs [3, 21]: 5350 ng·h/mL and 4540 ng·h/mL and 7490 ng·h/mL and 4980 ng·h/mL and 6220 ng·h/mL and 6540 ng·h/mL
AUC0-last, individual dogs [3, 21]: 4650 ng·h/mL and 4040 ng·h/mL and 5850 ng·h/mL and 3960 ng·h/mL and 5390 ng·h/mL and 5460 ng·h/mL
Cmax, individual dogs [3, 21]: 542 ng/mL and 482 ng/mL and 615 ng/mL and 459 ng/mL and 549 ng/mL and 569 ng/mL
MRT0-last, individual dogs [3, 21]: 7.74 h and 7.34 h and 8.38 h and 8.01 h and 7.93 h and 8.32 h
T1/2, individual dogs [3, 21]: 8.60 h and 8.14 h and 11.97 h and 11.58 h and 8.31 h and 9.57 h
